Reference: patent US10532985B2, “Heterocycle and carbocycle derivatives having TRKA inhibitory activity” (Shionogi & Co., Ltd., priority 2014, dated 2020)

What follows are compounds tested against T1, human TrkA (Homo sapiens, UniProt P04629) (assay: Test Example 2: Human TrkA Inhibition Assay). Settings: Test Example 2; human TrkA 2.5 nmol/L, ATP 500 μmol/L, 90 min at room temperature; read-out: TrkA inhibitory activity IC50.
T1 construct: purchased Lifetechnologies PV3144
Format: biochemical
Experimental: After the incubation for 90 min at room temperature, ten μL of termination buffer (100 mmol/L HEPES, 40 mmol/L ethylenediaminetetraacetic acid (EDTA), 10 mmol/L magnesium chloride, 0.003 vol % Brij-35, 0.004 vol % Tween20, 1 mmol/L DTT and 0.16 vol % Coating Reagent 3) was added in each well to stop the enzyme reaction. Fluorescent intensities (FI) of phosphorylated and non-phosphorylated fluorescent substrates were measured by LabChip EZReader II (Caliper LifeSciences, Inc.) and conversion ratio (CR) was calculated by the following formula-1. The CR in the well applied with DMSO alone was used as a negative control and the CR in the well without applying TrkA was used as a positive control. The inhibitory effect of each compound on TrkA phosphorylation was calculated by the following formula-2. CR (%)=(FI of phosphorylated substrate/(FI of phosphorylated substrate+FI of non-phosphorylated substrate))×100 (Formula-1) Inhibitory effect on TrkA phosphorylation (%)=(1−(CR in compound treated well−CR in positive control)/(CR in negative control−CR in positive control))×100. (Formula-2)

T1 sequence (P04629 33-796): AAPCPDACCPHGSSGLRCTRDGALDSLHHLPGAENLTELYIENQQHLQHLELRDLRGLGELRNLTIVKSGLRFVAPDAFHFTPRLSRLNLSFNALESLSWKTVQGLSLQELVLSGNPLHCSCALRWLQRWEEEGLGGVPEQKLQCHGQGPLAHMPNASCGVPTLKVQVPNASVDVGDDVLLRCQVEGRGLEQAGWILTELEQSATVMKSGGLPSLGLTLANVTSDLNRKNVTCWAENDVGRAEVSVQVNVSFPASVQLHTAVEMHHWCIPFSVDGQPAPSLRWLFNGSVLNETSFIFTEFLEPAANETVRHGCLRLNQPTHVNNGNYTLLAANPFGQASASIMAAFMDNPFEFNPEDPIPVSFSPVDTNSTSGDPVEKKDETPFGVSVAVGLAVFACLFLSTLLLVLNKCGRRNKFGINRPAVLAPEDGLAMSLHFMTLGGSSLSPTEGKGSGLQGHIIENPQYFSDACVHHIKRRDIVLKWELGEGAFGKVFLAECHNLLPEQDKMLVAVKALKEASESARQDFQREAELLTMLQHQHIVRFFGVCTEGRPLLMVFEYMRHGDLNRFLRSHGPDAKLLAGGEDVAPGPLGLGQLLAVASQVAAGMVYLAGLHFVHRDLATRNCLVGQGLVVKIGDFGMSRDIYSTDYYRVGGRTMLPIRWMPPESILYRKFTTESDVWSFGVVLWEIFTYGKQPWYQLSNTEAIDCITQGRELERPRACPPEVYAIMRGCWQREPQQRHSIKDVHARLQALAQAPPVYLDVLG

Compared with COCCN1C[C@@H](NC(=NS(C)(=O)=O)Nc2c(C)c(-c3cnn(C)c3)nn2-c2ccccc2)[C@H](c2ccccc2)C1 [Compound I-141], COCCC1(C)C[C@@H](NC(=O)Nc2c(C)c(-c3cnn(C)c3)nn2-c2ccccc2)[C@H](c2ccccc2)C1 (some centres unmarked) [Compound I-132] is 2.3-fold lower in IC50: 1100 nM for the first, 480 nM for the second.

Compared with COC1CCC1N1C[C@@H](NC(=O)Nc2c(C)c(-c3cnn(C)c3)nn2-c2ccccc2)[C@H](c2ccc(F)c(F)c2)C1 (some centres unmarked) [Compound I-114], COCC(CC#N)N1C[C@@H](NC(=O)Nc2c(C)c(-c3cnn(C)c3)nn2-c2ccccc2)[C@H](c2ccc(F)c(F)c2)C1 (some centres unmarked) [Compound I-93] is 5.7-fold lower in IC50: 120 nM for the first, 21 nM for the second. The second is the more potent here.

Cc1c(-c2cnn(C)c2)nn(-c2ccccc2)c1NC(=O)N[C@@H]1CN(CC(F)(F)F)C(=O)[C@H]1c1ccccc1 (racemic) [Compound I-44] gave an IC50 of 700 nM.

Same assay, conditions: human TrkA inhibition, Test Example 2; class symbols A/B/C; read-out: IC50_nM

Cc1c(-c2cnn(C)c2)nn(-c2ccccc2)c1NC(=O)N[C@@H]1CN(c2nn[nH]n2)C[C@H]1c1ccc(F)c(F)c1 [Compound I-148] and Cc1c(-c2cnn(C)c2)nn(-c2ccccc2)c1NC(=O)N[C@@H]1CN(c2nnn(C)n2)C[C@H]1c1ccc(F)c(F)c1 [Compound I-151] cannot be ordered by IC50: over 1000 nM for the first, over 1000 nM for the second.

Compared with COC1CCCCC1N1C[C@@H](NC(=O)Nc2c(C)c(-c3cnn(C)c3)nn2-c2ccccc2)[C@H](c2ccc(F)c(F)c2)C1 (some centres unmarked) [Compound I-176], Cc1c(-c2cnn(C)c2)nn(-c2ccccc2)c1NC(=O)N[C@@H]1CN(CC2CC2)C[C@H]1c1ccc(F)c(F)c1 [Compound I-66] is lower in IC50: over 1000 nM for the first, 100 to 1000 nM for the second. The second is the more potent here.

COCC(C[n+]1ccccc1)N1C[C@@H](NC(=O)Nc2c(C)c(-c3cnn(C)c3)nn2-c2ccccc2)[C@H](c2ccc(F)c(F)c2)C1 (some centres unmarked) [Compound I-110] and COCC(CNO)N1C[C@@H](NC(=O)Nc2c(C)c(-c3cnn(C)c3)nn2-c2ccccc2)[C@H](c2ccc(F)c(F)c2)C1 (some centres unmarked) [Compound I-92] cannot be ordered by IC50: under 100 nM for the first, under 100 nM for the second.

COCCN1C[C@@H](NC(=O)Nc2c(C)c(-c3cnn(C)c3)nn2-c2ccccc2)[C@H](c2nc3ccccc3o2)C1 (racemic) [Compound I-156] and COCCN1C[C@@H](NC(=O)Nc2c(C)c(-c3cnn(C)c3)nn2-c2ccccc2)[C@H](c2nc3ccccc3s2)C1 (racemic) [Compound I-153] cannot be ordered by IC50: over 1000 nM for the first, over 1000 nM for the second.

Cc1c(-c2cnn(C)c2)nn(-c2ccccc2)c1NC(=O)N[C@@H]1CN(Cc2nccn2C)C[C@H]1c1ccc(F)c(F)c1 [Compound I-159] and Cc1c(-c2cnn(C)c2)nn(-c2ccccc2)c1NC(=O)N[C@@H]1CN(Cc2nccn2C2CC2)C[C@H]1c1ccc(F)c(F)c1 [Compound I-147] cannot be ordered by IC50: over 1000 nM for the first, over 1000 nM for the second.

Compared with COCC(CN1CCOCC1)N1C[C@@H](NC(=O)Nc2c(C)c(-c3cnn(C)c3)nn2-c2ccccc2)[C@H](c2ccc(F)c(F)c2)C1 (some centres unmarked) [Compound I-158], COCC(CNC(N)=O)N1C[C@@H](NC(=O)Nc2c(C)c(-c3cnn(C)c3)nn2-c2ccccc2)[C@H](c2ccc(F)c(F)c2)C1 (some centres unmarked) [Compound I-111] is lower in IC50: over 1000 nM for the first, under 100 nM for the second. The second is the more potent here.

Cc1c(-c2cnn(C)c2)nn(-c2ccccc2)c1NC(=O)N[C@@H]1CC2(CC(O)C2)C[C@H]1c1ccccc1 (mixture of isomers) [Compound I-172] and COCC1(O)C[C@@H](NC(=O)Nc2c(C)c(-c3cnn(C)c3)nn2-c2ccccc2)[C@H](c2ccccc2)C1 (some centres unmarked) [Compound I-164] cannot be ordered by IC50: over 1000 nM for the first, over 1000 nM for the second.

COCCN1C[C@@H](NC(=O)Nc2c(C)c(-c3cnn(C)c3)nn2-c2ccccc2)[C@H](c2cccc(-c3ccc(C#N)s3)c2)C1 (racemic) [Compound I-53] and COCCN1C[C@@H](NC(=O)Nc2c(C)c(-c3cnn(C)c3)nn2-c2ccccc2)[C@H](c2cccc(-c3cccnc3)c2)C1 (racemic) [Compound I-56] cannot be ordered by IC50: over 1000 nM for the first, over 1000 nM for the second.

Compared with COCCC1C[C@H](NC(=O)Nc2c(C)c(-c3cnn(C)c3)nn2-c2ccccc2)[C@@H](c2ccccc2)C1 (some centres unmarked) [Compound I-123], COCC[C@H]1C[C@@H](NC(=O)Nc2c(C)c(-c3cnn(C)c3)nn2-c2ccccc2)[C@H](c2ccccc2)C1 [Compound I-95] is lower in IC50: 100 to 1000 nM for the first, under 100 nM for the second. The second is the more potent here.

Cc1c(-c2cnn(C)c2)nn(-c2ccccc2)c1NC(=O)N[C@@H]1CN(Cc2ccccc2)[C@H]1c1ccccc1 (racemic) [Compound I-11] and Cc1c(-c2cnn(C)c2)nn(-c2ccccc2)c1NC(=O)N[C@@H]1CN(Cc2ccccc2)C[C@H]1C1CCCCC1 (racemic) [Compound I-18] cannot be ordered by IC50: over 1000 nM for the first, over 1000 nM for the second.

Compared with COCCOCCN1C[C@@H](NC(=O)Nc2c(C)c(-c3cnn(C)c3)nn2-c2ccccc2)[C@H](c2ccc(F)c(F)c2)C1 [Compound I-81], COCCN1CCC(c2ccc(F)c(F)c2)C(NC(=O)Nc2c(C)c(-c3cnn(C)c3)nn2-c2ccccc2)C1 (centres unmarked) [Compound I-4] is higher in IC50: 100 to 1000 nM for the first, over 1000 nM for the second.

Compared with COCCN1C[C@@H](NC(=O)Nc2c(C)c(-c3cnn(C)c3)nn2-c2ccccc2)[C@H](C2CCC(F)(F)CC2)C1 (racemic) [Compound I-33], COCCN1C[C@@H](NC(=O)Nc2c(C)c(-c3cnn(C)c3)nn2-c2ccccc2)[C@H](c2cccc(C(=O)O)c2)C1 (racemic) [Compound I-82] is higher in IC50: 100 to 1000 nM for the first, over 1000 nM for the second.

COCCN1C[C@@H](NC(=O)Nc2c(C)c(-c3cnn(C)c3)nn2-c2ccccc2)[C@@]2(CCc3ccccc32)C1 (racemic) [Compound I-7] and COCCN1C[C@@H](NC(=O)Nc2c(C)c(-c3cnn(C)c3)nn2-c2ccccc2)[C@H](c2ccc3cccnc3c2)C1 (racemic) [Compound I-150] cannot be ordered by IC50: over 1000 nM for the first, over 1000 nM for the second.

First: COCC(C(=O)N(C)C)N1C[C@@H](NC(=O)Nc2c(C)c(-c3cnn(C)c3)nn2-c2ccccc2)[C@H](c2ccc(F)c(F)c2)C1 (some centres unmarked) [Compound I-174]
Second: COCC(C(N)=O)N1C[C@@H](NC(=O)Nc2c(C)c(-c3cnn(C)c3)nn2-c2ccccc2)[C@H](c2ccc(F)c(F)c2)C1 (some centres unmarked) [Compound I-116]
The IC50 of the first is higher: over 1000 nM for the first, 100 to 1000 nM for the second.

COCC(CNC(=O)OC)N1C[C@@H](NC(=O)Nc2c(C)c(-c3cnn(C)c3)nn2-c2ccccc2)[C@H](c2ccc(F)c(F)c2)C1 (some centres unmarked) [Compound I-139] and COCC(CNC(C)=O)N1C[C@@H](NC(=O)Nc2c(C)c(-c3cnn(C)c3)nn2-c2ccccc2)[C@H](c2ccc(F)c(F)c2)C1 (some centres unmarked) [Compound I-112] fall in the same range of IC50: 100 to 1000 nM for the first, 100 to 1000 nM for the second.

COCCN1C[C@@H](NC(=O)Nc2c(C)c(-c3cnn(C)c3)nn2-c2ccccc2)[C@H](c2cccc(-c3cncnc3)c2)C1 (racemic) [Compound I-59] and COCCN1C[C@@H](NC(=O)Nc2c(C)c(-c3cnn(C)c3)nn2-c2ccccc2)[C@H](c2cccc(-c3ccc(C(=O)OC)cc3)c2)C1 (racemic) [Compound I-54] cannot be ordered by IC50: over 1000 nM for the first, over 1000 nM for the second.

COC(=O)[C@@H]1C[C@@H](NC(=O)Nc2c(C)c(-c3cnn(C)c3)nn2-c2ccccc2)[C@H](c2ccc(F)c(F)c2)N1 (racemic) [Compound I-47] and Cc1c(-c2cnn(C)c2)nn(-c2ccccc2)c1NC(=O)N[C@@H]1C[C@@H](C)N(C)[C@H]1c1ccc(F)c(F)c1 (racemic) [I 78] cannot be ordered by IC50: over 1000 nM for the first, over 1000 nM for the second.

COC(=O)NCCN1C[C@@H](NC(=O)Nc2c(C)c(-c3cnn(C)c3)nn2-c2ccccc2)[C@H](c2ccc(F)c(F)c2)C1 [Compound I-41] and Cc1c(-c2cnn(C)c2)nn(-c2ccccc2)c1NC(=O)N[C@@H]1CN(CCNC(=O)C(F)(F)F)C[C@H]1c1ccc(F)c(F)c1 [Compound I-72] cannot be ordered by IC50: over 1000 nM for the first, over 1000 nM for the second.

Cc1c(-c2cnn(C)c2)nn(-c2ccccc2)c1NC(=O)N[C@@H]1CN(C(C)c2ccco2)C[C@H]1c1ccc(F)c(F)c1 (some centres unmarked) [Compound I-101] and Cc1c(-c2cnn(C)c2)nn(-c2ccccc2)c1NC(=O)N[C@@H]1CN(Cc2ccon2)C[C@H]1c1ccc(F)c(F)c1 [Compound I-98] cannot be ordered by IC50: under 100 nM for the first, under 100 nM for the second.

Cc1c(-c2cnn(C)c2)nn(-c2ccccc2)c1NC(=O)N[C@@H]1CN(CCS(C)(=O)=O)C[C@H]1c1ccc(F)c(F)c1 [Compound I-46] and Cc1c(-c2cnn(C)c2)nn(-c2ccccc2)c1NC(=O)N[C@@H]1CN(CCCS(C)(=O)=O)C[C@H]1c1ccc(F)c(F)c1 [Compound I-64] cannot be ordered by IC50: over 1000 nM for the first, over 1000 nM for the second.

Cc1c(-c2cnn(C)c2)nn(-c2ccccc2)c1NC(=O)NC1CCCCC1Cc1ccc(Cl)cc1 (centres unmarked) [Compound I-14] and Cc1c(-c2cnn(C)c2)nn(-c2ccccc2)c1NC(=O)N[C@@H]1CN(CO)C[C@H]1c1ccc(F)c(F)c1 (racemic) [Compound I-67] cannot be ordered by IC50: over 1000 nM for the first, over 1000 nM for the second.

Cc1c(-c2cnn(C)c2)nn(-c2ccccc2)c1NC(=O)N[C@@H]1C[N+](C)(C)C[C@H]1c1ccc(F)c(F)c1 [Compound I-25] and CC(=O)N1C[C@@H](NC(=O)Nc2c(C)c(-c3cnn(C)c3)nn2-c2ccccc2)[C@H](c2ccc(F)c(F)c2)C1 [Compound I-28] cannot be ordered by IC50: over 1000 nM for the first, over 1000 nM for the second.

COCCN1C[C@@H](NC(=O)Nc2c(C)c(OCC(C)(C)O)nn2-c2ccccc2)[C@H](C2CCCCC2)C1 (racemic) [Compound I-10] and COCCC(=O)N1C[C@@H](NC(=O)Nc2c(C)c(-c3cnn(C)c3)nn2-c2ccccc2)[C@H](c2ccc(F)c(F)c2)C1 [Compound I-27] cannot be ordered by IC50: over 1000 nM for the first, over 1000 nM for the second.

Cc1c(-c2cnn(C)c2)nn(-c2ccccc2)c1NC(=O)N[C@@H]1CN(Cc2nccs2)C[C@H]1c1ccc(F)c(F)c1 [Compound I-97] and COCCC1C[C@@H](NC(=O)Nc2c(C)c(-c3cnn(C)c3)nn2-c2ccccc2)[C@H](c2ccccc2)C1 (some centres unmarked) [Compound I-88] cannot be ordered by IC50: under 100 nM for the first, under 100 nM for the second.
